Reference: US12668590B2, “Composition and method for treating metabolic disorders” (priority 2016, dated 2026)

What was measured:
[1] = Aqueous solubility/dissolution of bromocriptine citrate relative to bromocriptine mesylate; assay type: physicochemical; details: various pH conditions, compared to bromocriptine mesylate
Experimental: Solid samples of equal amounts of bromocriptine mesylate and bromocriptine citrate added, under various pH conditions, to equal volumes of water or water/organic solutions in different vessels and the dissolution of the bromocriptine samples (aqueous solubility) was assessed over time.

[2] = Stability (degradation) of pharmaceutical preparations at 40° C. and 70% relative humidity; assay type: physicochemical; details: three-month period, compared to bromocriptine mesylate
Experimental: Pharmaceutical preparations of bromocriptine mesylate and bromocriptine citrate are exposed to atmospheric conditions (40° C. and 70% relative humidity) and the degradation of the bromocriptine is assessed over time.

## 2-bromo-alpha-ergocryptine citrate [bromocriptine citrate]
[1]; solid samples in water or water/organic solutions
  rate of dissolution: dissolve much more quickly
[1]; water or water/organic solutions
  aqueous solubility (mg of bromocriptine dissolved per ml of water): significantly greater solubility
[2]
  degradation of the bromocriptine: substantially less
